For one compound, EC50 results are on record in US9296754B2, “Compounds and compositions for the treatment of parasitic diseases” (Novartis AG, priority 2013, dated 2016).

The term EC50 denotes the concentration needed to bring the measured effect to its halfway point.

Experiment [1] deals with Trypanosoma brucei Lister 427 strain, bloodstream form. Description: Proliferation of Trypanosoma brucei (Cell Titer Glo). Format: cell-based. Conditions: 48 hours, read-out: T. brucei EC50. The text has this: Assay for Proliferation of Kinetoplastid Parasite Trypanosoma brucei. The proliferation is quantified by the addition of Cell Titer Glo (Promega®) a luminescent cell viability assay that measures the number of viable cells in culture based on the quantification of cellular ATP amount, which is an indicator of metabolically active cells. The following assay illustrates the invention without in any way limiting the scope of the invention. This parasite proliferation assay measures the increase in parasite growth using an assay that measures ATP activity, Cell Titer Glo®. […] Then 25 μl of a suspension of T. brucei culture in HMI-9 media is dispensed into the assay plates. […] The plates are then read for luminescence.
Background: Cellular ATP, detected with luciferase, serves as a proxy for viable cell number.

Experiment [2] concerns Leishmania donovani axenic amastigote parasites. Description: Leishmania donovani axenic amastigote proliferation assay (Cell TiterGlo luminescence). The conditions noted are these: 48 h, axenic amastigotes, 2 day incubation, read-out: L. donovani amastigotes EC50. Format: cell-based. The procedure: Leishmania donovani Axenic Amastigote Proliferation Assay […] At the same time control compounds and DMSO are added to plates to serve as the positive and negative controls, respectively. 40 μL of parasite culture (9600 parasites) are then added to the plate wells. The plates are then placed into incubators. After 2 day incubation, 20 μL of Cell TiterGlo (Promega) is added to the plate wells. The luminescence signal of each well is measured using the Envision reader (Perkin Elmer).

On to `CON(C)C(=O)Nc1cccc(-c2cn3cc(NC(=O)OC(C)C)cnc3n2)c1` [Compound 14, propan-2-yl N-[2-(3-{[methoxy(methyl)carbamoyl]amino}phenyl)imidazo[1,2-a]pyrimidin-6-yl]carbamate], for which the EC50 stood at 479 nM in experiment [1] and 4200 nM in experiment [2].
